Laboratory results reported in ChEMBL document CHEMBL6134876, “End-to-End Backbone Cyclization Enhances Passive Permeability of bRo5 Oligomeric Depsipeptides with Nonlinear Size Dependence” (ACS Med Chem Lett, 2025).
Starred links: 1 amine or outer side, 2 acyl side, 3 side chain; linkers in the order of their positions; H or OH if unused. Non-standard residues stand in square brackets, D forms with d. Residues, ends and D or L forms follow the SMILES beside them. X1 = CCCCC[C@H](O[*:1])C(=O)[*:2]; Ahp(2) = CCCCC[C@H](N)C(=O)O; dNMeA = CN[C@H](C)C(=O)O

What was measured:
Assay type in all cases: ADME
[1] = Permeability of compound assessed as compound recovery incubated for 14 to 18 hrs by PAMPA; conditions: time 14-18 hrs, read-out: Drug recovery
[2] = Permeability of compound assessed as compound diffusion incubated for 14 to 18 hrs by PAMPA; conditions: time 14-18 hrs
[3] = Apparent permeability of compound incubated for 14 to 18 hrs by PAMPA; conditions: time 14-18 hrs

recovery [1] [%] | Activity [2] [%] | Papp [3] | logPapp [3] | SMILES
93 | – | – | – | CCCCC[C@H](NC(=O)[C@@H](C)N(C)C(=O)[C@H](CCCCC)OC(=O)[C@@H](C)N(C)C(=O)[C@H](CCCCC)OC(=O)[C@@H](C)N(C)C(=O)[C@H](CCCCC)OC(=O)[C@@H](C)N(C)C(=O)OC(C)(C)C)C(=O)OCc1ccccc1
92 | – | – | – | CCCCC[C@H](NC(=O)[C@@H](C)N(C)C(=O)[C@H](CCCCC)NC(=O)[C@@H](C)N(C)C(=O)[C@H](CCCCC)OC(=O)[C@@H](C)N(C)C(=O)[C@H](CCCCC)OC(=O)[C@@H](C)N(C)C(=O)OC(C)(C)C)C(=O)OCc1ccccc1
– | < 5 | Below_limit_of_detection | Below_limit_of_detection | CCCCC[C@H](OC(=O)[C@@H](C)N(C)C(=O)[C@H](CCCCC)OC(=O)[C@@H](C)N(C)C(=O)[C@H](CCCCC)OC(=O)[C@@H](C)N(C)C(=O)[C@H](CCCCC)OC(=O)[C@@H](C)N(C)C(=O)[C@H](CCCCC)OC(=O)[C@@H](C)N(C)C(=O)[C@H](CCCCC)OC(=O)[C@@H](C)N(C)C(=O)OC(C)(C)C)C(=O)OCc1ccccc1
89 | 12 | – | – | CCCCC[C@H](NC(=O)[C@@H](C)N(C)C(=O)[C@H](CCCCC)NC(=O)[C@@H](C)N(C)C(=O)[C@H](CCCCC)NC(=O)[C@@H](C)N(C)C(=O)[C@H](CCCCC)OC(=O)[C@@H](C)N(C)C(=O)OC(C)(C)C)C(=O)OCc1ccccc1

SMILES | recovery [1] [%] | Activity [2] [%] | Papp [3] | logPapp [3]
CCCCC[C@@H]1NC(=O)[C@@H](C)N(C)C(=O)[C@H](CCCCC)OC(=O)[C@@H](C)N(C)C(=O)[C@H](CCCCC)NC(=O)[C@@H](C)N(C)C(=O)[C@H](CCCCC)OC(=O)[C@@H](C)N(C)C1=O (cyclo([Ahp(2)][dNMeA][X1][dNMeA][Ahp(2)][dNMeA][X1][dNMeA])) | – | 25 | – | –
